This note sets out measurements from US20210087206A1, “MACROCYCLIC KINASE INHIBITORS AND THEIR USE” (TURNING POINT THERAPEUTICS, INC., priority 2017, published 2021).

Some results are limits rather than exact numbers.

Holding throughout (assay): Cell proliferation assay (CellTiter-Glo)
Common to all, as to type: cell-based
Background: In ATP-based viability assays light output follows the ATP content of the culture.

For experiment [1], the target named is T1, BaF3 EML4-ALK (Homo sapiens, UniProt Q9UM73).
T1 construct: The EML4-ALK gene (variant 1) was synthesized at GenScript and cloned into pCDH-CMV-MCS-EF1-Puro plasmid (System Biosciences, Inc); fused on or other part: EML4 N-terminal part (variant 1: exons 1-13, with the coiled-coil that oligomerises the fusion) fused to the intracellular part of ALK, which contains the kinase domain; Q9HC35 (Echinoderm microtubule-associated protein-like 4)
The conditions noted are these: anti-cell proliferation, 72 hours. In short, it runs like this:
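Ba/F3 cells were lentivirally transduced with EML4-ALK variant 1 and selected for puromycin resistance and IL-3-independent growth. Proliferation was measured by CellTiter-Glo ATP luminescence to give IC50.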

The test system of experiment [2] is KG-1 cell (OP2-FGFR1). The conditions noted are these: Homo sapiens, anti-cell proliferation, 72 hours. In short, it runs like this:
(§1)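 Cells seeded 24 h, then exposed to compounds for 72 h at 37° C., 5% CO2. Proliferation read by CellTiter-Glo luminescent ATP detection; IC50 from dose-response fits.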

For experiment [3], the system named is KM12 (TPM3-TRKA). The conditions noted are these: Homo sapiens, anti-cell proliferation, 72 hours. The method in brief: as §1

T1 sequence (Q9UM73 whole entry, stated change not applied, the tested form may be a part): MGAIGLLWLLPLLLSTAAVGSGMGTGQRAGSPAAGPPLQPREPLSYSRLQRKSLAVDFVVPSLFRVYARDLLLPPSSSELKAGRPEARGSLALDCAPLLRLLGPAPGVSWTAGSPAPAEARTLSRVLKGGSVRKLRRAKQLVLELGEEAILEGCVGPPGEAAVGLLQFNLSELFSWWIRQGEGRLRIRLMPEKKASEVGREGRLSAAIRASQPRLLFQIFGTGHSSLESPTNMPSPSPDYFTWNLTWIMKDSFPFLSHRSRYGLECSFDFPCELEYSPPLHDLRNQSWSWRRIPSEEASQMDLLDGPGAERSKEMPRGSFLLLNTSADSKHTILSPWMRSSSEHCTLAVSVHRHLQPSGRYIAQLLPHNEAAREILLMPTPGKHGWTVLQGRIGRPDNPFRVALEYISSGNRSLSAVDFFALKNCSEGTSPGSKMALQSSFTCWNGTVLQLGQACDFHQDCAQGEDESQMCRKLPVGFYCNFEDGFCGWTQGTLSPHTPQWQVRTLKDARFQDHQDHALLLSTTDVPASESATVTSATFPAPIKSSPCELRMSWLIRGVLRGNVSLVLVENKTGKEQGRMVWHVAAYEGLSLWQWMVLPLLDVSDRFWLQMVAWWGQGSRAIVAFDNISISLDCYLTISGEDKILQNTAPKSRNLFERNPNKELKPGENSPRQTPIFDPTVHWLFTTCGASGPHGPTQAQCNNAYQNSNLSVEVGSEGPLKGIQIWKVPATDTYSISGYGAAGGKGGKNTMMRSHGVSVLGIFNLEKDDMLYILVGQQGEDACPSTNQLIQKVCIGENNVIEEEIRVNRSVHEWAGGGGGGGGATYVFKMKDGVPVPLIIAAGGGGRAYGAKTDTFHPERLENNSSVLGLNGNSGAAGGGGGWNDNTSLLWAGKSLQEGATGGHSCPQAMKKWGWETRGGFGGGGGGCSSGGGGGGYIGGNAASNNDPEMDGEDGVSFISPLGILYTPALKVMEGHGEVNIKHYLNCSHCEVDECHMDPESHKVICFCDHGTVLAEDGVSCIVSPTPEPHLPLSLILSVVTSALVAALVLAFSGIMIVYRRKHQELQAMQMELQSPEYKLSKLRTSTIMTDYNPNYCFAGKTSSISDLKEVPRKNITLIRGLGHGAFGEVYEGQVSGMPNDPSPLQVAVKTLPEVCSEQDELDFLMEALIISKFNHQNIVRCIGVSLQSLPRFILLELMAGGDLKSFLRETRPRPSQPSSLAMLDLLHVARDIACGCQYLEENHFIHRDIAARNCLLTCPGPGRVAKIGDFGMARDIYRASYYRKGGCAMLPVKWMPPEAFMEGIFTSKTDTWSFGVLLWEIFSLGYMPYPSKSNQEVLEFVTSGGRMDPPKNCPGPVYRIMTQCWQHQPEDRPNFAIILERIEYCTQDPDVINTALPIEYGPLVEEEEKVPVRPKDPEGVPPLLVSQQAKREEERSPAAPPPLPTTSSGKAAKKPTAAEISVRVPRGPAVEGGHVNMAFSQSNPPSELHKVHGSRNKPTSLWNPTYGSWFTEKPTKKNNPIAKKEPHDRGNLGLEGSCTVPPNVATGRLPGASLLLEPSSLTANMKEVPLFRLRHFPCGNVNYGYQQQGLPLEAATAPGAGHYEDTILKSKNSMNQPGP

For orientation: IC50 means the concentration that gives 50% inhibition. A low value points to greater potency. For the compound `C[C@@H]1COc2ncc(F)cc2CN2c3nc4c(cnn4cc3OCC23CCC3)C(=O)N1` [Compound 58, (13′R)-8′-fluoro-13′-methyl-3′H,6′H,12′H,13′H,14′H,15′H-spiro[cyclobutane-1,4′-[2,11]-dioxa[5,10,14,17,18,19]hexaaza-[18,1](metheno)[1,4]oxazino-[3,4-i]pyrazolo[4,3-f]pyrido-[3,2-l][1,4,8,10]oxatriazacyclo-tridecin]-15′-one], the half-inhibitory concentration (IC50) in experiment [1] is 203 nM; in experiment [2] it was 1620 nM; in experiment [3], less than 0.2 nM.

In the case of `C[C@@H]1COc2ncc(F)cc2CN2c3nc4c(cnn4cc3OCC23CCCC3)C(=O)N1` [Compound 59, (13′R)-8′-fluoro-13′-methyl-3′H,6′H,12′H,13′H,14′H,15′H-spiro[cyclopentane-1,4′-[2,11]-dioxa[5,10,14,17,18,19]hexaaza-[18,1](metheno)[1,4]oxazino-[3,4-i]pyrazolo[4,3-f]pyrido-[3,2-l][1,4,8,10]oxatriazacyclo-tridecin]-15′-one], the half-inhibitory concentration (IC50) was 1020 nM in experiment [1], 2000 nM in experiment [2] and less than 0.2 nM in experiment [3].

On to `C[C@@H]1COc2ncc(F)cc2CN2c3nc4c(cnn4cc3OC[C@H]2C(N)=O)C(=O)N1` [Compound 60, (4S,13R)-8-fluoro-13-methyl-15-oxo-3,4,12,13,14,15-hexahydro-6H-18,1-(metheno)[1,4]oxazino[3,4-i]pyrazolo[4,3-f]pyrido[3,2-l][1,4,8,10]oxatriazacyclotridecine-4-carboxamide], for which the half-maximal inhibitory concentration (IC50) in experiment [1] was more than 10000 nM; in experiment [2], more than 10000 nM; in experiment [3], 51.2 nM.

`C[C@@H]1COc2ncc(F)cc2CN2C[C@H](O)COc3cn4ncc(c4nc32)C(=O)N1` [Compound 61, (4S,14R)-9-fluoro-4-hydroxy-14-methyl-4,5,14,15-tetrahydro-3H,7H-19,1-(methano)[1,4]-oxazepino[3,4-i]pyrazolo[4,3-f]-pyrido[3,2-l][1,4,8,10]oxatriaza-cyclotridecin-16(13H)-one]: the values for the half-maximal inhibitory concentration (IC50) in experiment [1], in experiment [2] and in experiment [3] were 4000 nM, 482 nM and 482 nM, respectively.

Consider `C[C@@H]1COc2ncc(F)cc2CN2c3nc4c(cnn4cc3OCC23CC(F)(F)C3)C(=O)N1` [Compound 63, (13′R)-3,3,8′-trifluoro-13′-methyl-3′H,6′H,12′H,13′H,14′H,15′H-spiro[cyclobutane-1,4′-[2,11]-dioxa[5,10,14,17,18,19]hexaaza-[18,1](metheno)[1,4]oxazino[3,4-i]pyrazolo[4,3-f]pyrido[3,2-l] [1,4,8,10]oxatriazacyclotridecin]-15′-one], for which the IC50 in experiment [1] was 576 nM; in experiment [2], 10000 nM; in experiment [3] it was less than 0.2 nM.

In the case of `C[C@H]1CNC(=O)c2cnn3cc4c(nc23)N(Cc2cc(F)cnc2O1)C1(CO4)CC(F)(F)C1` [Compound 64, (12′S)-3,3,8′-trifluoro-12′-methyl-3′H,6′H,12′H,13′H,14′H,15′H-spiro[cyclobutane-1,4′-[2,11]-dioxa[5,10,14,17,18,19]hexaaza-[18,1](metheno)[1,4]oxazino[3,4-i]pyrazolo[4,3-f]pyrido[3,2-l] [1,4,8,10]oxatriazacyclotridecin]-15′-one], the half-maximal inhibitory concentration (IC50) in experiment [1] was 1230 nM; in experiment [2] it was 10000 nM; in experiment [3], less than 0.2 nM.

For the compound `CC[C@@H]1COc2cn3ncc4c3nc2N1Cc1cc(F)cnc1OCC(C)(C)NC4=O` [Compound 65, (4R)-4-ethyl-8-fluoro-13,13-dimethyl-3,4,13,14-tetrahydro-6H-18,1-(metheno)[1,4]oxazino[3,4-i]pyrazolo[4,3-f]pyrido[3,2-l][1,4,8,10]oxatriazacyclotridecin-15(12H)-one], the values for the 50% inhibitory concentration (IC50) in experiment [1], in experiment [2] and in experiment [3] were 164 nM, 42.1 nM and less than 0.2 nM, respectively.

For `C[C@@H]1COc2cn3ncc4c3nc2N1Cc1cc(F)cnc1OCC1(CC1)CNC4=O` [Compound 67, (16′R)-12′-fluoro-16′-methyl-4′H,5′H,6′H,8′H,14′H,16′H,17′H-spiro[cyclopropane-1,7′-[9,18]-dioxa[1,2,5,10,15,20]hexaaza-[1,19](metheno)[1,4]oxazino[4,3-e]pyrazolo[3,4-h]pyrido[2,3-b] [1,5,7,11]oxatriazacyclotetradecin]-4′-one], the figures for the 50% inhibitory concentration (IC50) in experiment [1], in experiment [2] and in experiment [3] were 32.4 nM, 8.8 nM and less than 0.2 nM, respectively.

With `C[C@@H]1COc2ncc(F)cc2CN2c3nc4c(cnn4cc3OCC2(C)C)C(=O)N1` [Compound 68, (13R)-8-fluoro-4,4,13-trimethyl-3,4,13,14-tetrahydro-6H-18,1-(metheno)[1,4]oxazino[3,4-i]-pyrazolo[4,3-f]pyrido[3,2-l] [1,4,8,10]oxatriazacyclotridecin-15(12H)-one], the half-maximal inhibitory concentration (IC50) is 339 nM in experiment [1], 5690 nM in experiment [2] and less than 0.2 nM in experiment [3].

In the case of `CC1CCNC(=O)c2cnn3cc4c(nc23)N(Cc2cc(F)cnc2O1)[C@H](C)CO4` (stereo partly drawn) [Compound 69, (16R)-12-fluoro-8,16-dimethyl-5,6,7,8,16,17-hexahydro-4H,14H-1,19-(metheno)[1,4]oxazino[4,3-e]pyrazolo[3,4-h]pyrido[2,3-b] [1,5,7,11]oxatriazacyclotetradecin-4-one], the 50% inhibitory concentration (IC50) in experiment [1] is 87.9 nM; in experiment [2], 23.7 nM; in experiment [3], less than 0.2 nM.

As to `C[C@@H]1COc2cn3ncc4c3nc2N1Cc1cc(F)cnc1OCCC(C)(C)NC4=O` [Compound 70, (16R)-12-fluoro-6,6,16-trimethyl-5,6,7,8,16,17-hexahydro-4H,14H-1,19-(metheno)[1,4]oxazino[4,3-e]pyrazolo[3,4-h]pyrido[2,3-b] [1,5,7,11]oxatriazacyclotetradecin-4-one], the concentration for half-maximal inhibition (IC50) was 35.7 nM in experiment [1], 51.7 nM in experiment [2] and less than 0.2 nM in experiment [3].

In the case of `CC1CNC(=O)c2cnn3cc4c(nc23)N(Cc2cc(F)cnc2OC1)[C@H](C)CO4` (stereo partly drawn) [Compound 71, (16R)-12-fluoro-7,16-dimethyl-5,6,7,8,16,17-hexahydro-4H,14H-1,19-(metheno)[1,4]oxazino[4,3-e]pyrazolo[3,4-h]pyrido[2,3-b] [1,5,7,11]oxatriazacyclotetradecin-4-one], the 50% inhibitory concentration (IC50) in experiment [1] is 19.9 nM; in experiment [2], 11.9 nM; in experiment [3] it was less than 0.2 nM.

Regarding `CC[C@@H]1COc2cn3ncc4c3nc2N1Cc1cc(F)cnc1OCC1(CC1)NC4=O` [Compound 72, (4′R)-4′-ethyl-8′-fluoro-3′H,4′H,6′H,12′H,14′H,15′H-spiro[cyclopropane-1,13′-[2,11]dioxa[5,10,14,17,18,19]hexaaza-[18,1](metheno)[1,4]oxazino-[3,4-i]pyrazolo[4,3-f]pyrido[3,2-l][1,4,8,10]oxatriazacyclotridecin]-15′-one], the IC50 in experiment [1] was 18.8 nM; in experiment [2] it was 3.9 nM; in experiment [3] it was less than 0.2 nM.

Take `CC[C@@H]1COc2cn3ncc4c3nc2N1Cc1cc(F)cnc1OCC1(CCC1)NC4=O` [Compound 73, (4′R)-4′-ethyl-8′-fluoro-3′H,4′H,6′H,12′H,14′H,15′H-spiro[cyclobutane-1,13’-[2,11]-dioxa[5,10,14,17,18,19]hexaaza-[18,1](metheno)[1,4]oxazino[3,4-i]pyrazolo[4,3-f]pyrido[3,2-l] [1,4,8,10]oxatriazacyclotridecin]-15′-one]: the 50% inhibitory concentration (IC50) was 93.1 nM in experiment [1], 5 nM in experiment [2] and less than 0.2 nM in experiment [3].
